These results are taken from a melting point compilation (Tetko et al.; mined from patent text by program, amines drawn as free bases though some values may be those of a salt).

Bounds are passed on as bounds.

As to `CN1c2cc(Cl)ccc2-c2nc3ccccc3c3cccc1c23`, the melting point was in the range of 272 to 274 °C. Molecule `O=C(Oc1ccc(OC(=O)c2cc(O)c(O)c(O)c2)c(-c2ccccc2)c1)c1cc(O)c(O)c(O)c1` came in with a melting point of 114 to 116 °C.

Take `CC(=O)n1cc(Cl)c(-c2cccc(Cl)c2Cl)c1`: the melting point worked out at 97 °C. The molecule `c1coc(-c2cnc3[nH]c4ccccc4c3c2)c1` showed a melting point of more than 220 °C.

`COC(=O)N1CC(=O)Nc2cccc(F)c21` showed a melting point of 170 to 172 °C. With `CCOC(=O)NC1(c2ccccc2Cl)CCCCC1=O` (centres undefined) the figure was 112 to 114 °C.

Molecule `CCOCn1c(Cl)c(C#N)c(Cl)c1-c1ccc(Cl)c(Cl)c1` displayed a melting point of 106 to 109 °C. For `CCCCOC(=O)Cc1ccc(CNS(=O)(=O)c2ccccc2)cc1`, the melting point was in the range of 60.5 to 61 °C.

For the molecule `CCCCC(=O)c1c(-c2ccc3c(Br)c(O)ccc3c2)oc2ccccc12`, the melting point was 171 to 172 °C.

In turn, `CC(O)CCc1cc(C(C)(C)C)c(O)c(C(C)(C)C)c1` (centres undefined) gave a melting point of 62 to 67 °C. With `CCNC(=O)c1cc(C(=O)O)cc(C(=O)NCC)n1` the figure was 278 to 280 °C; with `COc1ccc(F)c2c1C=C(C#N)CO2`, 133 to 135 °C; with `COc1ccc(C(=O)NC(=O)Nc2ccc3c(c2)/C(=C/c2ccc[nH]2)C(=O)N3)cc1`, 278 to 283 °C. Under `CCOC(=O)/C(=N\OCc1c(Cl)cccc1Cl)c1csc(N)n1` stands 171 to 172 °C. On to `Cc1noc([C@@H](Cc2ccccc2)NC(=O)[C@@H](Cc2ccc3ccccc3c2)NC(=O)C2CCN(C(=O)OC(C)(C)C)CC2)n1`, for which the melting point fell in the range of 152 to 155 °C. Under `CCCC[C@H]1COC(c2ccc(OCCCCCCCc3cc(C)no3)cc2)=N1` stands 122 to 123 °C; under `CC(=O)C(C)n1nc(C(=O)NC2CN(C)CCN(Cc3ccccc3)C2)c2ccccc21` (centres undefined), 97 to 100 °C.

`O=[N+]([O-])c1c(OC(F)(F)F)ccc2nc(Cl)sc12` yielded a melting point of 64 °C.

`Oc1ncnc2[nH]c(-c3ccccc3)cc12` returned a melting point of more than 300 °C. Molecule `CCCCCOc1ccc(C=O)cc1OCCCCC` displayed a melting point of 31 to 32.5 °C. With `C[Si](C)(C)COc1cc([N+](=O)[O-])ccc1N` the figure was 87 °C; with `FC(F)COc1cc(NC2=NCC3(CN4CCC3CC4)O2)ncn1` (centres undefined), 83 to 88 °C.

For the molecule `COC(=O)C[C@H](Br)C(N)=O`, the melting point is 82 to 84 °C. `FC(COC1CCC(Nc2ncnc3[nH]ncc23)CC1F)c1ccccc1` (centres undefined) registered a melting point of 204 to 205 °C. Under `N#Cc1ccc(NC(=O)Nc2ccc(S(N)(=O)=O)cc2)cc1` stands 265 to 267 °C; under `COc1ccc2[nH]cc(C(C)N3CCCCC3=O)c2c1` (centres undefined), 150 °C; under `CC(C)(C)c1csc(-c2cc3cc(CCl)ccc3o2)n1`, 117 to 119 °C. Under `CCc1nc2c(N)nc3ccccc3c2n1CC1(O)CCCCC1` stands 217 to 218 °C; under `CCCCCCCCCCCCCCCCSCC(CO)OC(=O)NC` (centres undefined), 53 to 55 °C; under `COC(=O)CCCc1cc2cc(Cl)ccc2n1S(=O)(=O)c1ccc2sc(C)nc2c1`, 136 to 138 °C.

As for `Cn1cncc1C(O)(c1ccc(Cl)cc1)c1cc2c3c(c1)c(-c1cccc(Cl)c1)cc(=O)n3CC2` (centres undefined), the melting point came out at 214 °C. With `CC(C)(C)NCC(O)COc1ccccc1C#Cc1ccc(C(N)=O)cc1` (centres undefined) the figure was 199 to 201 °C. Under `COc1ccc2c(c1)COc1c-2ccc2cc(OC)ccc12` stands 175 to 178 °C; under `O=C(O)Cc1cc(Cl)c2c(c1)CCC(c1ccccc1)N2` (centres undefined), 126 to 127 °C.

`O=C1CNc2cccc(Oc3cc(-c4ccc(C(F)(F)F)cc4)ncn3)c2N1` came in with a melting point of 305 °C. Molecule `OC(c1ccccc1)(c1ccccc1)C(c1ccc(OCc2ccccc2)cc1)n1ccnc1` (centres undefined) came in with a melting point of 204 °C.

Molecule `Cc1c(/C=C/C(=O)O)cnn1C` gave a melting point of 217 to 219 °C. With `COC1C=C2CC(OC(C)=O)CCC2(C)C2CCC3(C)C(=O)CCC3C12` (centres undefined) the figure was 175 to 178 °C. Regarding `O=C(C=Cc1ccc(Br)cc1)c1cc(Br)ccc1[N+](=O)[O-]`, the melting point is 169 to 190 °C. Under `COCc1ccc(Cn2cc(-c3ccc(OC)cc3)ccc2=O)cc1` stands 72 °C. With `CCOC(=O)c1nc(NC)sc1-c1cn2ccc(C)cc2n1` the figure was 210 to 213 °C. With `CC(C)(Cc1cccc(C(=O)c2cccc(CC(C)(C)C(=O)O)c2)c1)C(=O)O` the figure was 46 to 48 °C; with `COc1cc(OC)nc(Oc2ccc(N(C)C)nc2C(=O)O)n1`, 195 to 198 °C. Regarding `CCCCCCCCCCC/C=C/c1ccc(C=CC(=O)O)cc1`, the melting point was 107 °C. Molecule `COc1ccccc1N1CCN(C(=O)Nc2nc3ccccc3nc2OC)CC1` displayed a melting point of 177 to 178 °C. As to `CCCCOc1ccc(S(=O)(=O)Nc2onc(C)c2Br)cc1`, the melting point is 98 to 100 °C. Under `CCN(CC)C(=O)OC12Oc3cc(C(C)C)ccc3C1(O)C(=O)c1ccccc12` (centres undefined) stands 127 to 130 °C; under `C[C@H](C#Cc1ccc(Cc2ccccc2)s1)N(O)C(N)=O`, 140 to 142 °C; under `Cc1nc(-c2cc3c(OC[C@@H](O)CN4CCC(c5ccc6ccccc6c5)CC4)cccc3o2)no1`, 146 to 148 °C.

With `NC(CO)(CO)CCc1ccc(C(=O)CCCCCc2ccccc2)cc1`, the melting point was in the range of 118 to 120 °C. With `CNC(=O)Oc1ccc(NC(=O)C(C)Oc2ccccc2)c(C)c1` (centres undefined) the figure was 123 to 125 °C; with `O=C(N1CCCC1)C(CCN1CCC(O)(c2ccccc2)CC1)(c1ccccc1)c1ccccc1`, 188 °C; with `COc1cc(Nc2nc3c(ccc4c3ncn4CCN3CCOCC3)cc2C#N)c(C)cc1Cl`, 246 to 248 °C. With `O=C1OC(=O)c2ncc([N+](=O)[O-])cc21` the figure was 85 to 91 °C; with `CC(=O)SCCS(=O)(=O)N1CCC[C@H]1C(=O)O`, 63 to 67 °C; with `COCOc1ccccc1-c1cc(-c2ccccc2C(=O)OC)c(C#N)c(NC(=O)c2cccs2)n1`, 190 to 191 °C.

`CS(=O)(=O)c1ccc([C@@H](CC2CCCC2)C(=O)Nc2cnc(C(CO)CO)cn2)cc1Cl` registered a melting point of 110 to 120 °C. Under `CN(C)c1ccc(C(=O)NN=C2C(=O)Nc3ccc(I)cc32)cc1` stands 324 °C. With `CS(=O)(=O)c1ccc(-c2cnn(CC(F)(F)F)c(=O)c2-c2ccc(Cl)c(Cl)c2)cc1` the figure was 197 to 198 °C; with `O=C(O)c1cccc(-c2ccc(F)c3cc(Cc4ccc(F)c(F)c4)sc23)c1`, 224 to 225 °C; with `O=C(Nc1ccc(-n2nc(C(F)(F)F)cc2C(F)(F)F)cc1)c1c(F)c(F)cc(F)c1F`, 235 to 237 °C. Under `O=C(O)c1cc(-c2ccc3c(c2)CCO3)nn(CCCc2ccc(Cl)cc2)c1=O` stands 157 to 160 °C. Regarding `CCN(C#N)C(=O)CCCCC(=O)N(C#N)CC`, the melting point is 38.7 to 40.1 °C. `CCOC(=O)CCn1c(-c2ccc(Cl)cc2)nc2cccnc21`: the melting point was in the range of 57 to 59 °C.
